Where two headings read alike, the source gives them in different places.
What was measured:
[1] = tested on: rats; assay: Anti-inflammatory activity: carragenic test (carragenine-induced edema of the hind leg); format: in vivo, male rats; details: for ED50: Rattus norvegicus, oral, read-out: ED 50
Experimental: All products were administered in gummy julep except No. 1 and No. 13 which were administered in suspension in Tween. The anti-inflammatory activity was determined by the carragenic test with male rats. Inflammation was induced by the injection of 0.1 ml of a 0.5% suspension of carragenine in a physiological serum into the muscular fasciculus of the metatarsal region of the hind leg of the animal. The substance to be tested was orally administered simultaneously with the carragenine. The edema was measured by phethysmography 1, 2, 3, 4, 5 and 6 hours after the administration of the carragenine.
**50 mg/kg No. 13 which were administered in suspension in Tween.

[2] = tested on: mice; assay: Analgesic activity: protection against abdominal twisting induced by phenylbenzoquinone (PBQ); format: in vivo; details: for ED50: Mus musculus, oral, read-out: AD 50 (the source's name)
Experimental: All products were administered in gummy julep except No. 1 and No. 13 which were administered in Tween. The analgesic activity were determined in mice by utilizing as a nociceptive agent, phenylbenzoquinone (PBQ) (modification of the method by Siegmund and co-workers Proc. Soc. Exp. Biol. Med. 1957, 95, 729-31). The process consists of seeking a possible protection for the mouse vis-a-vis abdominal twisting and stretching of the hind legs induced by the parental injection of PBQ. 25 minutes after having orally administered the products to be tested in suspension in 2% Tween 80 or in 6% gummy julep, the PBQ solution was injected and the mice were observed after 5 minutes during the following 5 minutes. For certain products, AD 50 is presented as a measure of activity. […]

[3] = tested on: rats; assay: Ulcerous activity (modified method of Colot); format: in vivo, female EOPS rats
Experimental: Ulcerous activity was determined according to a modification of the method by Colot (Technical notions of general pharmacology, 1972) in the case of femal EOPS rats of approximately 150 g. The animals were left without absolutely any food, while the test products were orally administered on a daily basis in suspension in 2% Tween at a volume of 0.5 ml/100 g. The animals were killed under chloroform and the stomachs were removed. Ulcerous activity was established by means of an index taking into account the degree of ulceration and the percentage of animals effected.
In the table given below, a comparison is shown between the results obtained with niflumic acid and product No. 1.

[4] = Oral toxicity in mice (LDO, LD50); format: in vivo; details: mouse, in vivo, gummy julep (No. 1 and 13 in Tween), 2 weeks observation
Experimental: (§1) This toxicity is estimated by the calculation of the lethal dose of 50 (LD 50) which determines the fatal dose of the substance for 50% of the animals tested. This determination was effected in accordance with a modification of the method by Litchfield and Wilcoxon (J. Pharmacol. Exp. Therap. 1949, 96, 99-113).
(§2) Swiss mice without specific pathogenic organisms were kept in air conditioned rooms 24 to 48 hours before the start of the tests. They were divided into batches of 5.male. and 5.female.. With the animals unfed for 24 hours, the substances were intragastically administered in suspension in 2% Tween 80 or in 6% gummy julep in a volume equivalent to 0.1 ml per 10 g of the weight of the animal.
(§3) They remained under observation for two weeks before being killed and subjected to an autopsy.
(§4) All products were administered in gummy julep except No. 1 and No. 13 which were administered in Tween. The analgesic activity were determined in mice by utilizing as a nociceptive agent, phenylbenzoquinone (PBQ) (modification of the method by Siegmund and co-workers Proc. Soc. Exp. Biol. Med. 1957, 95, 729-31). The process consists of seeking a possible protection for the mouse vis-a-vis abdominal twisting and stretching of the hind legs induced by the parental injection of PBQ. 25 minutes after having orally administered the products to be tested in suspension in 2% Tween 80 or in 6% gummy julep, the PBQ solution was injected and the mice were observed after 5 minutes during the following 5 minutes. For certain products, AD 50 is presented as a measure of activity.

[5] = tested on: mice; assay: Oral toxicity in mice (LDO, LD50); format: in vivo; details: gummy julep (No. 1 and 13 in Tween), 2 weeks observation
Experimental: as §1, §2, §3, §4

O=C(O)c1cccnc1Nc1cccc(C(F)(F)F)c1 [Niflumic acid]
ED50 ([1]; 2H): 34 mg/kg
ED50 ([1]; 4H): 125 mg/kg
ED50 [2]: 17 mg/kg
IA: Acute ulceration index ([3]; 83 mg/kg oral daily, 1 day): 8
IC: Ulceration index on the way of cicatrization ([3]; 83 mg/kg oral daily, 1 day): 380
IT: Total index ([3]; 83 mg/kg oral daily, 1 day): 388
IA: Acute ulceration index ([3]; 83 mg/kg oral daily, 3 days): 16
IC: Ulceration index on the way of cicatrization ([3]; 83 mg/kg oral daily, 3 days): 206
IT: Total index ([3]; 83 mg/kg oral daily, 3 days): 222
LD50 at 336 h [4]: ~350 mg/kg

O=C1OC(Nc2ccc3c(c2)OCO3)c2ccccc21 (stereo not shown) [Product 1]
IA: Acute ulceration index ([3]; 250 mg/kg oral daily, 1 day): 0
IC: Ulceration index on the way of cicatrization ([3]; 250 mg/kg oral daily, 1 day): 1.5
IA: Acute ulceration index ([3]; 250 mg/kg oral daily, 3 days): 5
IC: Ulceration index on the way of cicatrization ([3]; 250 mg/kg oral daily, 3 days): 22
LD50 at 336 h [4]: ~2600 mg/kg

O=C1OC(Nc2ccc3c(c2)OCCO3)c2ccccc21 (stereo not shown) [Product 13]
% activity (inhibition of edema) ([1]; 150 mg/kg oral, 2H): 77%
% activity (inhibition of edema) ([1]; 150 mg/kg oral, 4H): 50%
% activity (inhibition of edema) ([1]; 300 mg/kg oral, 2H): 76%
% activity (inhibition of edema) ([1]; 300 mg/kg oral, 4H): 55%
ED50 ([1]; 2H): 230 mg/kg
ED50 ([1]; 4H): 210 mg/kg
% activity ([2]; 150 mg/kg oral): 73%
ED50 [2]: 100 mg/kg
LD50 at 336 h [4]: ≥ 3000 mg/kg
LDO (maximum dose which did not lead to any mortality) [5]: ≥ 1000 mg/kg

CCCC1(CC)Oc2ccc(NC3OC(=O)c4ccccc43)cc2O1 (stereo not shown) [Product 6]
% activity (inhibition of edema) ([1]; 200 mg/kg oral, 4H): 22%
% activity (inhibition of edema) ([1]; 400 mg/kg oral, 4H): 3%
% activity ([2]; 200 mg/kg oral): 25%
ED50 [2]: 420 mg/kg
LD50 at 336 h [4]: ≥ 2000 mg/kg
LDO (maximum dose which did not lead to any mortality) [5]: 1000 to 2000 mg/kg

Source: patent US4122202A, “Amino-3H-isobenzofuranones N-substitutes and their therapeutic application” (Societe Cortial, priority 1975, dated 1978)
